Measured values from patent US5096922A, “Macrocyclic antibodies” (Gesellschaft fur Biotechnologische Forschung mbH, priority 1985, dated 1992).

Tests used:
[1] = target: T1, reverse transcriptase of Moloney Murine leucaemia virus (Moloney murine leukemia virus, UniProt P03355); experiment: inhibition of reverse transcriptase enzyme; type: biochemical; settings: reverse transcriptase of MLV; method of Wu et al.; read-out: ID50 (dose that inhibits the RT activity by 50%) (converted)
T1 construct: reverse transcriptase of Moloney Murine leucaemia virus
Method: Proof of the antiviral activity of the compounds of formula I against retroviruses is shown by in vitro and in vivo tests, but especially by an in vitro test system in which the inhibition of the reverse transcriptase enzyme is determined quantitatively by said compounds.
On poly A-oligo (dT), radioactively labelled TPP is hybridised with reverse transcriptase. The […] radioactivity is measured and serves as reference for the activity of the reverse transcriptase.
The ID50 of the compounds of formula I is determined by using them in the test system in different concentrations.
Sorangicin A is active against reverse transcriptase of Moloney Murine leucaemia virus; the ID50 [dose that inhibits the RT activity by 50%; method of Wu et al., Proc. Natl. Acad. Sci., 69, 3820 (1972)] for the reverse transcriptase of MLV is c. 7 μg/ml.

[2] = tested on: Staphylococcus aureus Strain Wood 46 in human polymorphonuclear leucocytes; experiment: in vitro test on human polymorphonuclear leucocytes and Staphylococcus aureus Strain Wood 46; type: cell-based; settings: S. aureus Strain Wood 46
Description: In the in vitro test on human polymorphonuclear leucocytes and Staphylococcus aureus Strain Wood 46, sorangicin A is effective against bacteria that occur intracellularly, e.g. staphylococcae.

In the case of `CC(=CC(C)CCCCC(=O)O)C1OC2C=CC1OC(=O)C=CC=CC=CC1OC3CC1OC(C=CCC1OC(CC(O)C1C)C(O)C(O)C=CCCC=CC2)C3C` (stereo not drawn) [sorangicin A], the IC50 [1] is reported as about 8.67 µM, the “activity against bacteria that occur intracellularly” value [2] is reported as “effective” and the activity within leucocytes [2] is reported as “bactericidal activity”.
